US20230365554A1, “SUBSTITUTED PYRROLO-PYRIDINONE DERIVATIVES AND THERAPEUTIC USES THEREOF” (The Broad Institute, Inc., priority 2020, published 2023)
Where “and” joins values, the source holds several entries; their conditions need not be identical. Equal entries are not always repeated.

Target: wild-type Epidermal Growth Factor Receptor (EGFR) (Homo sapiens (Human), UniProt P00533)
Assay: WT-EGFR kinase assay (TR-FRET, 2 mM ATP)
Assay type: biochemical
Conditions: median or individual measurements, Table 3, read-out: EGFR Wildtyp-2mM ATP IC50 [mol/l] (median)
Text: Inhibitory activity of compounds of the present invention against wild-type Epidermal Growth Factor Receptor (EGFR) was quantified employing the TR-FRET based EGFR assay as described in the following paragraphs.
Recombinant fusion protein of N-terminal Glutathion-S-Transferase (GST) and a fragment of human EGFR (amino acids R669 to A1210), expressed in Sf9 insect cells and purified via affinity chromatography using Glutathion Sepharose as described above, was used as kinase. As substrate for the kinase reaction the biotinylated peptide biotin-Ahx-AEEEEYFELVAKKK (C-terminus in amide form) was used which can be purchased e.g. form the company Biosynthan GmbH (Berlin-Buch, Germany).
For the assay 50 nl of a 100 fold concentrated solution of the test compound in DMSO was pipetted into either a black low volume 384 well microtiter plate or a black 1536 well microtiter plate (both Greiner Bio-One, Frickenhausen, Germany), 2 μL of a solution of EGFR in aqueous assay buffer [50 mM Hepes pH 7.0, 10 mM MgCl2, 1 mM dithiothreitol, 0.5 mM EGTA, 0.3 mM activated sodium ortho-vanadate, 0.005% (w/v) bovine serum albumin, 0.005% (v/v) Tween-20] were added and the mixture was incubated for 15 min at 22° C. to allow pre-binding of the test compounds to the enzyme before the start of the kinase reaction. Then the kinase reaction was started by the addition of 3 μL of a solution of adenosine-tri-phosphate (ATP, 3.33 mM=>final conc. in the 5 μL assay volume is 2 mM) and substrate (1.67 μM=>final conc. in the 5 μL assay volume is 1 μM) in assay buffer and the resulting mixture was incubated for a reaction time of 30 min at 22° C. The concentration of EGFR was adjusted depending of the activity of the enzyme lot and was chosen appropriate to have the assay in the linear range, typical concentration was 7.6 pg/μL. The reaction was stopped by the addition of 3 μL of a solution of HTRF detection reagents (83.3 nM streptavidine-XL665 [Cisbio Bioassays, Codolet, France] and 1.67 nM PT66-Tb-Cryptate, a terbium-cryptate labelled anti-phospho-tyrosine antibody from Cisbio Bioassays [instead of the PT66-Tb-cryptate PT66-Eu-Chelate from Perkin Elmer can also be used]) in an aqueous EDTA-solution (133.3 mM EDTA, 0.2% (w/v) bovine serum albumin in 50 mM HEPES pH 7.5).
The resulting mixture was incubated 1 h at 22° C. to allow the binding of the biotinylated phosphorylated peptide to the streptavidine-XL665 and the PT66-Tb-Cryptate. Subsequently the amount of phosphorylated substrate was evaluated by measurement of the resonance energy transfer from the PT66-Tb-Cryptate to the streptavidine-XL665. Therefore, the fluorescence emissions at 620 nm and 665 nm after excitation at 337 nm were measured in a HTRF reader, e.g. a Pherastar (BMG Labtechnologies, Offenburg, Germany) or a Viewlux (Perkin-Elmer). The ratio of the emissions at 665 nm and at […] was taken as the measure for the amount of phosphorylated substrate. The data were normalised (enzyme reaction without inhibitor=0% inhibition, all other assay components but no enzyme=100% inhibition).

Chain of wild-type Epidermal Growth Factor Receptor (EGFR) (P00533 669-1210): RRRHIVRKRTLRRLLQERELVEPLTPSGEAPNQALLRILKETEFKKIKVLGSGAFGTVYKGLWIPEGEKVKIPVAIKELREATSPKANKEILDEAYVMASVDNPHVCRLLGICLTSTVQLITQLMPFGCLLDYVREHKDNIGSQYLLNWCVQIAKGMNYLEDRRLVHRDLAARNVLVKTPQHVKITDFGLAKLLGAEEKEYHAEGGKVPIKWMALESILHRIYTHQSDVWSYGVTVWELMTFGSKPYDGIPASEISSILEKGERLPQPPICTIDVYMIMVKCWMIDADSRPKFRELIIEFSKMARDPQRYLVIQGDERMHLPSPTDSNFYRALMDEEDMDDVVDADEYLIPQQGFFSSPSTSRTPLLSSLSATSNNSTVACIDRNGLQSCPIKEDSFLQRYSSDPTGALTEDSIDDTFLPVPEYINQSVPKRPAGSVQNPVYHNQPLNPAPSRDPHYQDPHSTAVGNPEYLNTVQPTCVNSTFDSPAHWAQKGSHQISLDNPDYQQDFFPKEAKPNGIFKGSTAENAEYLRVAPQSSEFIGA

| Structure (SMILES) | IC50 |
| --- | --- |
| CC1CN(C)C(=O)c2c1[nH]c(-c1ccnc(NC(=O)Cc3ccc(F)cc3)c1)c2Nc1ccccc1 (single isomer, unassigned; (-)) [Example 7, (−)-N-{4-[3-anilino-5,7-dimethyl-4-oxo-4,5,6,7-tetrahydro-1H-pyrrolo[3,2-c]pyridin-2-yl]pyridin-2-yl}-2-(4-fluorophenyl)acetamide] | 1.3 µM |
| CC1CN(C)C(=O)c2c1[nH]c(-c1ccnc(NC(=O)C(C)c3ccc(F)cc3)c1)c2Nc1ccccc1 (racemic) [Example 9, N-{4-[(7RS)-3-anilino-5,7-dimethyl-4-oxo-4,5,6,7-tetrahydro-1H-pyrrolo[3,2-c]pyridin-2-yl]pyridin-2-yl}-2-(4-fluorophenyl)propanamide] | 13 µM |
| CN1CC(CC(F)(F)F)c2[nH]c(-c3ccnc(NC(=O)C(CC(F)F)c4ccc(F)cc4)c3)c(Nc3ccccc3)c2C1=O (centres unmarked) [Example 17, N-{4-[3-anilino-5-methyl-4-oxo-7-(2,2,2-trifluoroethyl)-4,5,6,7-tetrahydro-1H-pyrrolo[3,2-c]pyridin-2-yl]pyridin-2-yl}-4,4-difluoro-2-(4-fluorophenyl)butanamide] | > 20 µM and > 5.7 µM and 3.7 µM and 3.2 µM |
| Cc1cn(C)c(=O)c2c(Nc3ccccc3)c(-c3ccnc(NC(=O)C(C)c4ccc(F)cc4)c3)[nH]c12 (single isomer, unassigned) [Example 40, N-[4-(3-anilino-5,7-dimethyl-4-oxo-4,5-dihydro-1H-pyrrolo[3,2-c]pyridin-2-yl)pyridin-2-yl]-2-(4-fluorophenyl)propanamide] | 17 µM |
| CN1CC(CC(F)(F)F)c2[nH]c(-c3ccnc(NC(=O)C(CC(F)F)c4ccc(F)cc4)c3)c(Nc3cscn3)c2C1=O (single isomer, unassigned) [Example 54, (2R or S)-4,4-difluoro-2-(4-fluorophenyl)-N-{4-[(7R or S)-5-methyl-4-oxo-3-[(1,3-thiazol-4-yl)amino]-7-(2,2,2-trifluoroethyl)-4,5,6,7-tetrahydro-1H-pyrrolo[3,2-c]pyridin-2-yl]pyridin-2-yl}butanamide] | > 20 µM |
| Cc1cn(C)c(=O)c2c(Nc3ccccc3)c(-c3ccnc(NC(=O)C(CC(F)F)c4ccc(F)cc4)c3)[nH]c12 (racemic) [Example 11, N-[4-(3-anilino-5,7-dimethyl-4-oxo-4,5-dihydro-1H-pyrrolo[3,2-c]pyridin-2-yl)pyridin-2-yl]-4,4-difluoro-2-(4-fluorophenyl)butanamide] | > 20 µM |
| CN1CC(CC2CC2)c2[nH]c(-c3ccnc(NC(=O)Cc4ccc(F)cc4)c3)c(Nc3ccccc3)c2C1=O (racemic) [Example 18, N-{4-[3-anilino-7-(cyclopropylmethyl)-5-methyl-4-oxo-4,5,6,7-tetrahydro-1H-pyrrolo[3,2-c]pyridin-2-yl]pyridin-2-yl}-2-(4-fluorophenyl)acetamide] | 4.3 µM |
| O=C1N[C@@H]2CCC[C@@H]2c2[nH]c(-c3ccnc(NC(=O)C(CC(F)F)c4ccc(F)cc4)c3)c(Nc3ccccc3)c21 (single isomer, unassigned; (+)) [Example 22, (+)-(2R or S)—N-{4-[cis-3-anilino-4-oxo-1,4,5,5a,6,7,8,8a-octahydrocyclopenta[b]pyrrolo[2,3-d]pyridin-2-yl]pyridin-2-yl}-4,4-difluoro-2-(4-fluorophenyl)butanamide] | > 20 µM |
| Cn1cc(CC2CC2)c2[nH]c(-c3ccnc(NC(=O)Cc4ccc(F)cc4)c3)c(Nc3ccccc3)c2c1=O [Example 32, N-{4-[3-anilino-7-(cyclopropylmethyl)-5-methyl-4-oxo-4,5-dihydro-1H-pyrrolo[3,2-c]pyridin-2-yl]pyridin-2-yl}-2-(4-fluorophenyl)acetamide] | 0.86 µM |
| CN1CC(CC2CC2)c2[nH]c(-c3ccnc(NC(=O)Cc4ccc(F)cc4)c3)c(Nc3ccccc3)c2C1=O (single isomer, unassigned) [Example 20, N-{4-[3-anilino-7-(cyclopropylmethyl)-5-methyl-4-oxo-4,5,6,7-tetrahydro-1H-pyrrolo[3,2-c]pyridin-2-yl]pyridin-2-yl}-2-(4-fluorophenyl)acetamide] | 8 µM |
| Cn1cc(CC(F)F)c2[nH]c(-c3ccnc(NC(=O)Cc4ccc(F)cc4)c3)c(Nc3ccccc3)c2c1=O [Example 45, N-{4-[3-anilino-7-(2,2-difluoroethyl)-5-methyl-4-oxo-4,5-dihydro-1H-pyrrolo[3,2-c]pyridin-2-yl]pyridin-2-yl}-2-(4-fluorophenyl)acetamide] | 0.15 µM |
| C[C@@H](C(=O)Nc1cc(-c2[nH]c3ccn(C)c(=O)c3c2Nc2ccccc2)ccn1)c1ccc(F)cc1 (single isomer, unassigned) [Example 27] | > 20 µM |
| CCC1CNC(=O)c2c1[nH]c(-c1ccnc(NC(=O)C(CC(F)F)c3ccc(F)cc3)c1)c2Nc1ccccc1 (centres unmarked) [Example 4, N-{4-[3-anilino-7-ethyl-4-oxo-4,5,6,7-tetrahydro-1H-pyrrolo[3,2-c]pyridin-2-yl]pyridin-2-yl}-4,4-difluoro-2-(4-fluorophenyl)butanamide] | 1.2 µM |
| CN1CC(CC(F)(F)F)c2[nH]c(-c3ccnc(NC(=O)C(CC(F)F)c4ccc(F)cc4)c3)c(Nc3cscn3)c2C1=O (single isomer, unassigned) [Example 56, (2R or S)-4,4-difluoro-2-(4-fluorophenyl)-N-{4-[(7R or S)-5-methyl-4-oxo-3-[(1,3-thiazol-4-yl)amino]-7-(2,2,2-trifluoroethyl)-4,5,6,7-tetrahydro-1H-pyrrolo[3,2-c]pyridin-2-yl]pyridin-2-yl}butanamide] | > 20 µM |
| CN1CC(CC(F)F)c2[nH]c(-c3ccnc(NC(=O)Cc4ccc(F)cc4)c3)c(Nc3ccccc3)c2C1=O (racemic) [Example 42, N-{4-[3-anilino-7-(2,2-difluoroethyl)-5-methyl-4-oxo-4,5,6,7-tetrahydro-1H-pyrrolo[3,2-c]pyridin-2-yl]pyridin-2-yl}-2-(4-fluorophenyl)acetamide] | 1.1 µM |
| Cc1cn(C)c(=O)c2c(Nc3ccccc3)c(-c3ccnc(NC(=O)C(CC(F)F)c4ccc(F)cc4)c3)[nH]c12 (single isomer, unassigned) [Example 12, N-[4-(3-anilino-5,7-dimethyl-4-oxo-4,5-dihydro-1H-pyrrolo[3,2-c]pyridin-2-yl)pyridin-2-yl]-4,4-difluoro-2-(4-fluorophenyl)butanamide] | > 20 µM |
| O=C1N[C@@H]2CCC[C@@H]2c2[nH]c(-c3ccnc(NC(=O)C(CC(F)F)c4ccc(F)cc4)c3)c(Nc3ccccc3)c21 (single isomer, unassigned; (-)) [Example 24, (−)-(2R or S)—N-{4-[cis-3-anilino-4-oxo-1,4,5,5a,6,7,8,8a-octahydrocyclopenta[b]pyrrolo[2,3-d]pyridin-2-yl]pyridin-2-yl}-4,4-difluoro-2-(4-fluorophenyl)butanamide] | 0.31 µM |
| CN1CC(CC2CC2)c2[nH]c(-c3ccnc(NC(=O)Cc4ccc(F)cc4)c3)c(Nc3cscn3)c2C1=O (single isomer, unassigned) [Example 50, N-{4-[(7R or S)-7-(cyclopropylmethyl)-5-methyl-4-oxo-3-(1,3-thiazol-4-ylamino)-4,5,6,7-tetrahydro-1H-pyrrolo[3,2-c]pyridin-2-yl]pyridin-2-yl}-2-(4-fluorophenyl)acetamide] | > 20 µM |
| CC1CN(C)C(=O)c2c1[nH]c(-c1ccnc(NC(=O)Cc3ccc(F)cc3)c1)c2Nc1ccccc1 (single isomer, unassigned; (+)) [Example 8, (+)-N-{4-[3-anilino-5,7-dimethyl-4-oxo-4,5,6,7-tetrahydro-1H-pyrrolo[3,2-c]pyridin-2-yl]pyridin-2-yl}-2-(4-fluorophenyl)acetamide] | 3 µM |
| O=C1N[C@@H]2CCC[C@@H]2c2[nH]c(-c3ccnc(NC(=O)C(CC(F)F)c4ccc(F)cc4)c3)c(Nc3ccccc3)c21 (single isomer, unassigned; (+)) [Example 25, (+)-(2R or S)—N-{4-[cis-3-anilino-4-oxo-1,4,5,5a,6,7,8,8a-octahydrocyclopenta[b]pyrrolo[2,3-d]pyridin-2-yl]pyridin-2-yl}-4,4-difluoro-2-(4-fluorophenyl)butanamide] | > 20 µM |
